Test results from patent US11071731B2, “Allosteric modulators of the mu opioid receptor” (Chiromics, LLC, priority 2017, dated 2021).

What was measured:
mu opioid receptor (MOR) [1] = biological target: T1, mu opioid receptor (MOR) (Homo sapiens, UniProt P35372); assay: PathHunter β-arrestin recruitment assay, PAM mode with EC20 endomorphin-1; format: cell-based
Summary of the method: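 β-Arrestin recruitment to the receptor was tracked by chemiluminescent β-galactosidase activity from complementing fragments (ED on receptor, EA on β-arrestin). Per-compound outputs were EC50 and percent maximal response.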

mu opioid receptor (MOR) [2] = biological target: T1, mu opioid receptor (MOR); assay: Hit Hunter cAMP signaling assay (adenylyl cyclase inhibition), PAM mode with EC20 endomorphin-1; format: cell-based
[3] = maximal response for β-arrestin recruitment
[4] = β-arrestin recruitment, read-out: β-arr. EC50
[5] = adenylyl cyclase inhibition, read-out: cAMP EC50
[6] = maximal response for adenylyl cyclase inhibition
[7] = cAMP EC50, adenylyl cyclase inhibition
[8] = maximal response, β-arrestin recruitment
[9] = maximal response, adenylyl cyclase inhibition
[10] = β-arrestin recruitment, activity switching by MOR PAMs
[11] = β-arrestin recruitment, activity switching by MOR PAMs, read-out: β-arrestin EC50
[12] = adenylyl cyclase inhibition, activity switching by MOR PAMs
[13] = adenylyl cyclase inhibition, activity switching by MOR PAMs, read-out: cAMP EC50

T1 sequence (P35372 whole entry, the tested form may be a part): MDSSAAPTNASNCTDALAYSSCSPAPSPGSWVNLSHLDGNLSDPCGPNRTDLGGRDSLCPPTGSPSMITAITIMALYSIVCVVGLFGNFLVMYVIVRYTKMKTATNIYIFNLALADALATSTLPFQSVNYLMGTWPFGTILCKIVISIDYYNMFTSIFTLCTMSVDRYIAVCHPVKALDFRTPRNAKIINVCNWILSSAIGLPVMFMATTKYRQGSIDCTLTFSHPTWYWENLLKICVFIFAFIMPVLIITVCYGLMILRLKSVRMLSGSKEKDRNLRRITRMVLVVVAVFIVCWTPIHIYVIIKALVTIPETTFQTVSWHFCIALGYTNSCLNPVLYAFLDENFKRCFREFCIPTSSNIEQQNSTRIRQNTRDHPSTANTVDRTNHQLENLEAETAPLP

Row | SMILES | β-arr Max. Resp. (mu opioid receptor (MOR) [1]; [3]) | EC50 (mu opioid receptor (MOR) [1]; [4]) | EC50 (mu opioid receptor (MOR) [2]; [5]) | cAMP Max. Resp. (mu opioid receptor (MOR) [2]; [6]) | EC50 (mu opioid receptor (MOR) [2]; [7]) | other results
1 | Fc1cc(C2CCC(F)CN2c2nc(Cl)ncc2F)cc(C(F)(F)F)c1 (stereo not shown) [compound 313] | F (F represents a maximal response of > 60%) | > 2100 nM | 700 to 2100 nM | E (E represents a maximal response of 40-60%) |  | 
2 | COc1ccc(C2C(F)CCCN2S(=O)(=O)c2ccc(Cl)cc2)cc1Br (stereo not shown) [compound 219] | F (F represents a maximal response of > 60%) | 700 to 2100 nM |  | F (F represents a maximal response of > 60%) | < 700 nM | allosteric activity for β-arrestin recruitment (mu opioid receptor (MOR) [1]; EC20 endomorphin-1 concentration of 4.5 nM): low positive allosteric activity; signaling preference β-arrestin vs cAMP (mu opioid receptor (MOR) [1]; comparison of β-arrestin and cAMP assays): preferential signaling via cAMP over β-arrestin; allosteric activity for cAMP signaling (mu opioid receptor (MOR) [2]; EC20 endomorphin-1 concentration of 0.45 nM): high positive allosteric activity
3 | COc1cccc(CN2CCCCC2c2cccc(C(F)(F)F)n2)c1 (stereo not shown) [compound 156] | F (F represents a maximal response of > 60%) | > 2100 nM |  | E (E represents a maximal response of 40-60%) | > 2100 nM | 
4 | O=S(=O)(c1ccc(Cl)cc1)N1CCCCC1c1ccc(OC(F)(F)F)c(Br)c1 (stereo not shown) [compound 43] | F (F represents a maximal response of > 60%) | 700 to 2100 nM | > 2100 nM | D (D represents a maximal response of < 40%) |  | 
5 | O=S(=O)(Cc1ccccc1Cl)N1CCCCC1c1cccc(C(F)(F)F)c1 (stereo not shown) [Compound 24] | F (F represents a maximal response of > 60%) | > 2100 nM | > 2100 nM | D (D represents a maximal response of < 40%) |  | 
6 | O=S(=O)(c1cccc(Cl)c1)N1C2CCC(C2)C1c1ccc(F)c(Br)c1 (stereo not shown) [Compound 180] | F (F represents a maximal response of > 60%) | > 2100 nM | > 2100 nM | E (E represents a maximal response of 40-60%) |  | 
7 | CC1CC(c2cccc(C(F)(F)F)n2)N(c2nc(Cl)ncc2F)C1 (single isomer, unassigned) [compound 221] | D (D represents a maximal response of < 40%) | > 2100 nM | > 2100 nM | D (D represents a maximal response of < 40%) |  | 
8 | [2H]C1(c2ccc(F)c(Br)c2)C(F)CCCN1S(=O)(=O)c1cc(F)ccc1F (stereo not shown) [Compound 38] | F (F represents a maximal response of > 60%) |  |  | D (D represents a maximal response of < 40%) |  | 
9 | FC(F)(F)c1cccc(C2CCCCN2c2ccnc(Cl)n2)c1 (stereo not shown) [compound 257] | F (F represents a maximal response of > 60%) | > 2100 nM |  | D (D represents a maximal response of < 40%) | > 2100 nM | 
10 | O=S(=O)(c1ccc(Cl)cc1)N1CCCCC1c1ccc(Cl)cc1 (racemic) [compound 76] | F (F represents a maximal response of > 60%) | > 2100 nM | > 2100 nM | D (D represents a maximal response of < 40%) |  | 
11 | Fc1ncc(F)c(N2CCCCC2c2cccc(C(F)(F)F)c2)n1 (stereo not shown) [compound 368] | D (D represents a maximal response of < 40%) | < 700 nM |  | D (D represents a maximal response of < 40%) | < 700 nM | 
12 | OC1CCN(c2nc(Cl)ncc2F)C(c2cc(F)cc(C(F)(F)F)c2)C1 (stereo not shown) [compound 201] | F (F represents a maximal response of > 60%) | > 2100 nM |  | F (F represents a maximal response of > 60%) | > 2100 nM | 
13 | Fc1ccc(N2CCCCC2c2ccc(F)c(Cl)c2)cc1 (stereo not shown) [compound 475] |  | > 2100 nM |  |  | > 2100 nM | β-arr Max. Resp. (mu opioid receptor (MOR) [1]; [8]): F (F represents a maximal response of > 60%); cAMP Max. Resp. (mu opioid receptor (MOR) [2]; [9]): D (D represents a maximal response of < 40%)
14 | Fc1ccc(C2CCCCN2c2ccc(C(F)(F)F)cc2)cc1Cl (stereo not shown) [compound 453] |  | > 2100 nM |  |  | > 2100 nM | β-arr Max. Resp. (mu opioid receptor (MOR) [1]; [8]): D (D represents a maximal response of < 40%); cAMP Max. Resp. (mu opioid receptor (MOR) [2]; [9]): D (D represents a maximal response of < 40%)
15 | Cc1cc(C2C(C)CCN2S(=O)(=O)c2ccc(Cl)cc2)ccc1F (mixture of isomers) [Compound 101] | F (F represents a maximal response of > 60%) | 700 to 2100 nM | < 700 nM | D (D represents a maximal response of < 40%) |  | 
16 | O=S(=O)(c1ccc(Cl)cc1F)N1CCCC(F)C1c1ccc(F)c(Br)c1 (stereo not shown) [Compound 37] |  | > 2100 nM | > 2100 nM |  |  | 
17 | Fc1ccc(Cl)cc1CN1CCCCC1c1ccc(Cl)c(C(F)(F)F)c1 (stereo not shown) [compound 150] | F (F represents a maximal response of > 60%) | < 700 nM |  | E (E represents a maximal response of 40-60%) | < 700 nM | 

Row | SMILES | β-arr Max. Resp. (mu opioid receptor (MOR) [1]; [3]) | EC50 (mu opioid receptor (MOR) [1]; [4]) | EC50 (mu opioid receptor (MOR) [2]; [5]) | cAMP Max. Resp. (mu opioid receptor (MOR) [2]; [6]) | EC50 (mu opioid receptor (MOR) [2]; [7]) | other results
18 | FC(F)(F)c1ccc(N2CCCCC2c2cccc(C(F)(F)F)n2)cc1 (stereo not shown) [compound 452] |  | > 2100 nM |  |  | > 2100 nM | β-arr Max. Resp. (mu opioid receptor (MOR) [1]; [8]): E (E represents a maximal response of 40-60%); cAMP Max. Resp. (mu opioid receptor (MOR) [2]; [9]): D (D represents a maximal response of < 40%)
19 | Fc1cc(C2CCCCN2c2nc(Cl)ncc2F)cc(C(F)(F)F)c1 (stereo not shown) [compound 122] | F (F represents a maximal response of > 60%) | < 700 nM |  | F (F represents a maximal response of > 60%) | < 700 nM | 
20 | COc1ccc(C2CCCCN2c2ncncc2F)cc1Br (stereo not shown) [compound 233] | F (F represents a maximal response of > 60%) | > 2100 nM |  | F (F represents a maximal response of > 60%) | > 2100 nM | 
21 | CCCC1(F)CCCN(c2nc(Cl)ncc2F)C1c1cccc(C(F)(F)F)c1 (stereo not shown) [compound 424] |  | > 2100 nM | > 2100 nM |  |  | β-arr Max. Resp. (mu opioid receptor (MOR) [1]; [8]): F (F represents a maximal response of > 60%); cAMP Max. Resp. (mu opioid receptor (MOR) [2]; [9]): D (D represents a maximal response of < 40%)
22 | O=S(=O)(c1ccc(Cl)cc1)N1CCCCC1c1ccc(F)c(Cl)c1 (racemic) [compound 52] | F (F represents a maximal response of > 60%) | < 700 nM | < 700 nM | F (F represents a maximal response of > 60%) |  | 
23 | CC1CCN(S(=O)(=O)c2ccc(Cl)cc2)C1c1ccc(Br)c(F)c1 (mixture of isomers) [Compound 92] | F (F represents a maximal response of > 60%) | 700 to 2100 nM | > 2100 nM | D (D represents a maximal response of < 40%) |  | 
24 | Fc1cnc(Cl)nc1N1CCCCC1c1cccc2nccn12 (stereo not shown) [compound 284] | D (D represents a maximal response of < 40%) | > 2100 nM |  | E (E represents a maximal response of 40-60%) | > 2100 nM | 
25 | Fc1ccc(C2COCCN2Cc2cc(Cl)ccc2F)cc1Cl (racemic) [Compound 194] | F (F represents a maximal response of > 60%) | 700 to 2100 nM | 700 to 2100 nM | D (D represents a maximal response of < 40%) |  | 
26 | COc1ccc(C2CC(C(F)(F)F)CN2S(=O)(=O)c2ccc(Cl)cc2)cc1Br (mixture of isomers) [Compound 86] | D (D represents a maximal response of < 40%) | > 2100 nM | > 2100 nM | D (D represents a maximal response of < 40%) |  | 
27 | CC1CCN(S(=O)(=O)c2ccc(Cl)cc2)C1c1ccc(F)c(F)c1F (mixture of isomers) [Compound 98] | E (E represents a maximal response of 40-60%) | > 2100 nM | > 2100 nM | D (D represents a maximal response of < 40%) |  | 
28 | O=S(=O)(c1ccc(Cl)cc1)N1CCCCC1c1cncc(C(F)(F)F)n1 (stereo not shown) [compound 63] | F (F represents a maximal response of > 60%) | > 2100 nM | > 2100 nM | E (E represents a maximal response of 40-60%) |  | β-arrestin Max Response (mu opioid receptor (MOR) [1]; [10]): F (F represents a maximal response of >60%); EC50 (mu opioid receptor (MOR) [1]; [11]): > 2100 nM; cAMP Max Resp. (mu opioid receptor (MOR) [2]; [12]): E (E represents a maximal response of 40-60%); EC50 (mu opioid receptor (MOR) [2]; [13]): > 2100 nM
29 | Cc1coc(C2CCCCN2c2nc(Cl)ncc2F)n1 (stereo not shown) [compound 366] | D (D represents a maximal response of < 40%) | < 700 nM |  | D (D represents a maximal response of < 40%) | < 700 nM | 
30 | O=S(=O)(c1ccc(Cl)cc1)N1CCCCC1c1cc(F)cc(C(F)(F)F)c1 (racemic) [compound 72] | F (F represents a maximal response of > 60%) | 700 to 2100 nM | < 700 nM | D (D represents a maximal response of < 40%) |  | β-arrestin Max Response (mu opioid receptor (MOR) [1]; [10]): F (F represents a maximal response of >60%); EC50 (mu opioid receptor (MOR) [1]; [11]): 700 to 2100 nM; cAMP Max Resp. (mu opioid receptor (MOR) [2]; [12]): D (D represents a maximal response of < 40%); EC50 (mu opioid receptor (MOR) [2]; [13]): < 700 nM
31 | O=S(=O)(c1ccc(Cl)cc1)N1CCCCC1c1cc(F)ccn1 (racemic) [compound 62] | F (F represents a maximal response of > 60%) | > 2100 nM | > 2100 nM | D (D represents a maximal response of < 40%) |  | 
32 | CC1CCN(S(=O)(=O)c2ccc(Cl)cc2)C1c1ccc2c(c1)OCO2 (mixture of isomers) [Compound 96] | F (F represents a maximal response of > 60%) | > 2100 nM | > 2100 nM | D (D represents a maximal response of < 40%) |  | 
33 | FC(F)(F)c1cccc(C2CCCCN2c2ccc(Cl)cc2)n1 (stereo not shown) [compound 454] |  | > 2100 nM | > 2100 nM |  |  | β-arr Max. Resp. (mu opioid receptor (MOR) [1]; [8]): E (E represents a maximal response of 40-60%); cAMP Max. Resp. (mu opioid receptor (MOR) [2]; [9]): D (D represents a maximal response of < 40%)
